Assay results from ChEMBL document CHEMBL1275438, “The human CXC chemokine granulocyte chemotactic protein 2 (GCP-2)/CXCL6 possesses membrane-disrupting properties and is antibacterial” (2008).
Values after ≈ are worked out from the molar mass of the structure shown. Active and inactive are the calls of the source. The rule behind the calls is not given here.

Columns and labels:
Format in all cases: functional
[1] = tested on: Lipid bilayer; assay: Induction of negatively charged DOPE/DOPG liposome disruption assessed as percent leakage after <1000 sec by spectrometry
[2] = tested on: Lipid bilayer; assay: Induction of negatively charged DOPE/DOPG liposome disruption by spectrometry in presence of 150 mM sodium chloride
[3] = tested on: Streptococcus pyogenes; assay: Antibacterial activity against Streptococcus pyogenes AP1 after 1 hr by bactericidal assay
[4] = tested on: Escherichia coli; assay: Antibacterial activity against Escherichia coli 37.4 after 1 hr by bactericidal assay

Row | SMILES | Activity [1] [%] | Activity [2] | MBC [3] [µM] | MBC ([3]; Streptococcus pyogenes, AP1, 1 h, read-out: MBC) [µM] | MBC [4] [µM] | MBC ([4]; Escherichia coli, 37.4, 1 h, read-out: MBC) [µM]
1 | CC[C@H](C)[C@H](NC(=O)[C@H](CCCCN)NC(=O)[C@H](CCC(N)=O)NC(=O)[C@@H](NC(=O)[C@@H](NC(=O)[C@H](CCCCN)NC(=O)[C@H](CCCCN)NC(=O)[C@H](CC(C)C)NC(=O)[C@H](Cc1ccccc1)NC(=O)[C@@H]1CCCN1C(=O)[C@@H](C)N)C(C)C)[C@@H](C)CC)C(=O)N[C@@H](CC(C)C)C(=O)N[C@@H](CC(=O)O)C(=O)N[C@@H](CO)C(=O)NCC(=O)N[C@@H](CC(N)=O)C(=O)N[C@@H](CCCCN)C(=O)N[C@@H](CCCCN)C(=O)N[C@@H](CC(N)=O)C(=O)O | 70 | Active |  |  |  | 
2 | CC[C@H](C)[C@H](NC(=O)[C@H](CCCCN)NC(=O)[C@H](CCC(N)=O)NC(=O)[C@@H](NC(=O)[C@@H](NC(=O)[C@H](CCCCN)NC(=O)[C@H](CCCCN)NC(=O)[C@H](CC(C)C)NC(=O)[C@H](Cc1ccccc1)NC(=O)[C@@H]1CCCN1C(=O)[C@H](C)N)C(C)C)[C@@H](C)CC)C(=O)N[C@@H](CC(C)C)C(=O)N[C@@H](CC(=O)O)C(=O)N[C@@H](CO)C(=O)NCC(=O)N[C@@H](CC(N)=O)C(=O)N[C@@H](CCCCN)C(=O)N[C@@H](CCCCN)C(=O)N[C@@H](CC(N)=O)C(=O)O |  |  | 9.5 (≈ 20.3 µg/mL) | 5.7 (≈ 12.2 µg/mL) | 9.5 (≈ 20.3 µg/mL) | 5.6 (≈ 12 µg/mL)
